Data set [1] is described as follows: in vivo. The conditions noted are these: male, CD1, mouse; for Cmax / bioavailability: po, 30 mg/kg.
Data set [2] is described as follows: in vivo. The conditions noted are these: male, SD, rat; for bioavailability / Cmax: po, 30 mg/kg.
Data set [3] is described as follows: physchem. The conditions noted are these: 25 °C, kinetic from dmso stock.
In data set [4] the test system is hERG / SGK1 (whole cell).
The conditions of data set [5]: male, SD, in vivo.
The target in data set [6] is CYP1A2 (Homo sapiens (Human), UniProt P05177). Nature of the data set: in vitro. Conditions: microsomes.

Each structure is given as a SMILES string. ≈ marks a conversion by molar mass, not a printed value.

Chain of CYP1A2 (P05177 whole entry): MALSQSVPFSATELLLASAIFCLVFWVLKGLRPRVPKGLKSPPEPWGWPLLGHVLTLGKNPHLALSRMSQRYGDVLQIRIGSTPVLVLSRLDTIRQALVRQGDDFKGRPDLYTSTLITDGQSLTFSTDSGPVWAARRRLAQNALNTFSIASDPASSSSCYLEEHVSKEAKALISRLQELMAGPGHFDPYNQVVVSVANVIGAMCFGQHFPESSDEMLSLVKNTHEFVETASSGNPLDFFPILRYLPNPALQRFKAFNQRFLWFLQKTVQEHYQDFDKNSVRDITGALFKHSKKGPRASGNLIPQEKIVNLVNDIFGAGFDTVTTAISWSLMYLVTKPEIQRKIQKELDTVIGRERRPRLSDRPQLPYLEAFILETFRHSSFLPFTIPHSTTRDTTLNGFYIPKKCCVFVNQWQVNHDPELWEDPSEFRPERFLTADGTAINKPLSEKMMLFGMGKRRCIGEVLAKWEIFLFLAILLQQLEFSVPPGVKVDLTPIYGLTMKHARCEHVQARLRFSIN

Regarding `Cc1n[nH]c2nc(-c3ccc(NS(=O)(=O)c4cc(Cl)ccc4F)c(F)c3)nc(OC3CCN(C)CC3)c12` [Compound 79, 5-chloro-2-fluoro-N-(2-fluoro-4-{3-methyl-4-[(1-methylpiperidin-4-yl)oxy]-1H-pyrazolo[3,4-d]pyrimidin-6-yl}phenyl)benzenesulfonamide], the half-life in data set [1] is 3 h; in data set [2], 5.06 h. The maximum concentration (Cmax) in data set [1] was found to be 3720 ng/mL; in data set [2] (Cmax (ng/ml)), 3400 ng/mL. Besides, the bioavailability was determined as 128% in data set [1] and 40.5% in data set [2]. Moreover, the solubility at 2 h in data set [3] (pH 5, fessif) worked out at 321 µM (≈ 176 µg/mL); in data set [3] (pH 7.4, aqueous buffer), 2.6 µM (≈ 1.43 µg/mL).

Consider `Cc1n[nH]c2nc(-c3ccc(NS(=O)(=O)c4cccnc4)cc3)nc(NCCN(C)C)c12` [Compound 23, N-[4-(4-[[2-(dimethylamino)ethyl]amino]-3-methyl-1H-pyrazolo[3,4-d]pyrimidin-6-yl)phenyl]pyridine-3-sulfonamide], for which the hERG/IC50 in data set [4] is listed as 4.1. In addition, the solubility at 2 h in data set [3] (pH 5, fessif) is 274 µM (≈ 124 µg/mL); in data set [3] (pH 7.4, aqueous buffer), 13.7 µM (≈ 6.2 µg/mL).

As for `Cc1n[nH]c2nc(-c3ccc(NS(=O)(=O)c4cc(Cl)ccc4F)c(Cl)c3)nc(NCCN(C)CCO)c12` [Compound 99, 5-chloro-N-{2-chloro-4-[4-({2-[(2-hydroxyethyl)(methyl)amino]ethyl}amino)-3-methyl-1H-pyrazolo[3,4-d]pyrimidin-6-yl]phenyl}-2-fluorobenzenesulfonamide], the “pK Data in Rat: F” value in data set [5] is “Cmax = 141 ng/mL F = 5.6%”. Moreover, the hERG/IC50 in data set [4] is on record as 91. For the same compound, in data set [2], the half-life was 10 h and the bioavailability is 5.6%. In data set [2] (Cmax (ng/ml)), this compound gave a Cmax of 141 ng/mL. The Cmax in data set [2] (pK Data in Rat: Cmax) was found to be 141 ng/mL.

In the case of `Cc1n[nH]c2nc(-c3ccc(NS(=O)(=O)c4cc(Cl)ccc4F)cc3)nc(OCCN(C)CCO)c12` [Compound 86, 5-chloro-2-fluoro-N-[4-(4-{2-[(2-hydroxyethyl)(methyl)amino]ethoxy}-3-methyl-1H-pyrazolo[3,4-d]pyrimidin-6-yl)phenyl]benzenesulfonamide], the half-life in data set [1] is 26 h; in data set [2], 4.9 h. Moreover, the Cmax in data set [1] amounted to 40.9 ng/mL; in data set [2] (Cmax (ng/ml)) it was 354 ng/mL. In addition, the values for the bioavailability in data set [1] and in data set [2] were 3.1% and 6.7%, respectively. Also, the solubility at 2 h amounted to 75 µM (≈ 40.1 µg/mL) in data set [3] (pH 5, fessif) and 0.66 µM (≈ 0.353 µg/mL) in data set [3] (pH 7.4, aqueous buffer).

Regarding `Cc1n[nH]c2nc(-c3ccc(NS(=O)(=O)c4cc(Cl)ccc4F)cc3)nc(NCCN(C)CCO)c12` [Compound 22, 5-chloro-2-fluoro-N-[4-[4-([2-[(2-hydroxyethyl)(methyl)amino]ethyl]amino)-3-methyl-1H-pyrazolo[3,4-d]pyrimidin-6-yl]phenyl]benzenesulfonamide], in data set [5], the “pK Data in Rat: F” value is given as “Cmax = 42 ng/mL F = 2.8%”. Further, in data set [4], the hERG/IC50 was 201. The half-life in data set [1] was 2.3 h; in data set [2], 5.14 h. In addition, the results for the Cmax in data set [1], in data set [2] (Cmax (ng/ml)) and in data set [2] (pK Data in Rat: Cmax) were 37.9 ng/mL, 41.9 ng/mL and 42 ng/mL, respectively. Also, the bioavailability in data set [1] is 2.5%; in data set [2], 2.79%. Further, the solubility at 2 h in data set [3] (pH 5, fessif) was found to be 289 µM (≈ 154 µg/mL); in data set [3] (pH 7.4, aqueous buffer) it was 8.37 µM (≈ 4.47 µg/mL).

The compound `Cc1n[nH]c2nc(-c3ccc(NS(=O)(=O)c4ccccn4)cc3)nc(NCCN(C)C)c12` [Compound 24, N-[4-(4-[[2-(dimethylamino)ethyl]amino]-3-methyl-1H-pyrazolo[3,4-d]pyrimidin-6-yl)phenyl]pyridine-2-sulfonamide] gave a hERG/IC50 in data set [4] of 20.7. Moreover, in data set [1], the half-life is 2.3 h, the highest level (Cmax) was 45.1 ng/mL and the bioavailability was 1.55%. This compound showed a solubility at 2 h in data set [3] (pH 5, fessif) of 300 µM (≈ 136 µg/mL). The concentration in solution in data set [3] (pH 7.4, aqueous buffer) (solubility at 2 h) was 278 µM (≈ 126 µg/mL).

Consider `Cc1n[nH]c2nc(-c3ccc(NS(=O)(=O)c4cc(Cl)ccc4F)c(F)c3)nc(NCCN(C)CCO)c12` [Compound 78, 5-chloro-2-fluoro-N-{2-fluoro-4-[4-({2-[(2-hydroxyethyl)(methyl)amino]ethyl}amino)-3-methyl-1H-pyrazolo[3,4-d]pyrimidin-6-yl]phenyl}benzenesulfonamide], for which, in data set [5], the “pK Data in Rat: F” value was “Cmax = 69 ng/mL F = 4.9%”. In addition, in data set [1], the half-life is 2.5 h, the Cmax is 111 ng/mL and the bioavailability turned out to be 4.9%. Further, the highest level in data set [2] (pK Data in Rat: Cmax) (Cmax) was 69 ng/mL. For the same compound, the concentration in solution in data set [3] (pH 5, fessif) (solubility at 2 h) was 275 µM (≈ 152 µg/mL). This compound showed a solubility at 2 h in data set [3] (pH 7.4, aqueous buffer) of 16 µM (≈ 8.83 µg/mL).

`COc1ccncc1S(=O)(=O)Nc1ccc(-c2nc(NCCN(C)C)c3c(C)n[nH]c3n2)cc1` [Compound 19, N-(4-(4-(2-(dimethylamino)ethylamino)-3-methyl-1H-pyrazolo[3,4-d]pyrimidin-6-yl)phenyl)-4-methoxypyridine-3-sulfonamide]: in data set [4], the hERG/IC50 was 1.5. Moreover, in data set [1], the concentration peaked (Cmax) at 9.3 ng/mL and the bioavailability amounted to 0.31%. The solubility at 2 h in data set [3] (pH 5, fessif) turned out to be 297 µM (≈ 143 µg/mL). In data set [3] (pH 7.4, aqueous buffer), the solubility at 2 h is 37 µM (≈ 17.9 µg/mL).

`Cc1nc2c([nH]1)c(=O)n(C)c(=O)n2Cc1ccco1` [Furafylline] came in with an inhibition at 20 min, 10 µM in data set [6] of 78%.

`Cc1n[nH]c2nc(-c3ccc(NS(=O)(=O)c4ccncc4F)cc3)nc(NCCN(C)C)c12` [Compound 15, N-[4-(4-[[2-(dimethylamino)ethyl]amino]-3-methyl-1H-pyrazolo[3,4-d]pyrimidin-6-yl)phenyl]-3-fluoropyridine-4-sulfonamide] gave a hERG/IC50 in data set [4] of 4.7. Moreover, the solubility at 2 h turned out to be 289 µM (≈ 136 µg/mL) in data set [3] (pH 5, fessif) and 282 µM (≈ 133 µg/mL) in data set [3] (pH 7.4, aqueous buffer).

`Cc1n[nH]c2nc(-c3ccc(NS(=O)(=O)c4cc(Cl)ccc4F)c(F)c3)nc(OC3CCN(C(C)C)CC3)c12` [Compound 28]: the “pK Data in Rat: F” value in data set [5] is “Cmax = 4017 ng/mL F = 51%”. In addition, the half-life in data set [1] is 3.4 h. Moreover, the Cmax in data set [1] and in data set [2] (pK Data in Rat: Cmax) was 4020 ng/mL throughout. Also, the bioavailability in data set [1] came to 51%. Besides, the solubility at 2 h was 293 µM (≈ 169 µg/mL) in data set [3] (pH 5, fessif) and 1.7 µM (≈ 0.981 µg/mL) in data set [3] (pH 7.4, aqueous buffer).

Turning to `Cc1n[nH]c2nc(-c3ccc(NS(=O)(=O)c4cc(F)ccc4F)cc3)nc(NCCN(C)C)c12` [Compound 45, N-(4-(4-((2-(dimethylamino)ethyl)amino)-3-methyl-1H-pyrazolo[3,4-d]pyrimidin-6-yl)phenyl)-2,5-difluorobenzenesulfonamide], the “pK Data in Rat: F” value in data set [5] is reported as “Cmax = 131 ng/mL F = 4.7%”. Also, the half-life in data set [2] is 3.63 h. Moreover, the bioavailability in data set [2] was found to be 4.68%. The Cmax in data set [2] (Cmax (ng/ml)) and in data set [2] (pK Data in Rat: Cmax) was 131 ng/mL each time. For the same compound, the solubility at 2 h is 277 µM (≈ 135 µg/mL) in data set [3] (pH 5, fessif) and 7.98 µM (≈ 3.89 µg/mL) in data set [3] (pH 7.4, aqueous buffer).

`COc1ccnc(S(=O)(=O)Nc2ccc(-c3nc(NCCN(C)C)c4c(C)n[nH]c4n3)cc2)c1` [Compound 27, N-(4-(4-((2-(dimethylamino)ethyl)amino)-3-methyl-1H-pyrazolo[3,4-d]pyrimidin-6-yl)phenyl)-4-methoxypyridine-2-sulfonamide] showed a hERG/IC50 in data set [4] of 341. In data set [1], this compound had a half-life of 2.7 h. The compound also registered a Cmax in data set [1] of 40.3 ng/mL. Further, the solubility at 2 h came to 256 µM (≈ 124 µg/mL) in data set [3] (pH 5, fessif) and 36.5 µM (≈ 17.6 µg/mL) in data set [3] (pH 7.4, aqueous buffer).

A word on the half-life: it is how long it takes for the measured level to halve. The low end stands for rapid decline, the high end for slow decline. The Cmax is the peak of the concentration-time curve. As usually defined, the solubility is how much of the substance goes into solution per volume. The low end stands for a poorly soluble substance, the high end for a readily soluble substance. Broadly, the inhibition is the relative decrease from the control value, in per cent. The low end stands for a weak effect, the high end for a strong effect.

(Values after patent US20240309005A1 (priority 2021, published 2024).)
